Source: publication PMC7366380, “Discovery of a Potent and Selective Covalent Inhibitor and Activity-Based Probe for the Deubiquitylating Enzyme UCHL1, with Antifibrotic Activity” (Journal of the American Chemical Society, 2020)
Values joined by “and” are separate entries in the source; they are usually repeats but may differ in a detail not shown here. Equal values may be shown once.

How the values were obtained:
Assay in all cases: In-cell proteome-wide competitive ABPP, HEK293: other DUBs and proteins
[1] = biological target: DUBs and other proteins in HEK293 cells (Homo sapiens, UniProt O00487); conditions: replicates A-C; for Log2 reporter intensity values: PSMD14: competition with ABP 2, DMSO substract (FC); for Log2 reporter intensity values: PSMD14, DMSO subtracted
DUBs and other proteins in HEK293 cells (Homo sapiens, UniProt O00487), sequence (O00487 whole entry): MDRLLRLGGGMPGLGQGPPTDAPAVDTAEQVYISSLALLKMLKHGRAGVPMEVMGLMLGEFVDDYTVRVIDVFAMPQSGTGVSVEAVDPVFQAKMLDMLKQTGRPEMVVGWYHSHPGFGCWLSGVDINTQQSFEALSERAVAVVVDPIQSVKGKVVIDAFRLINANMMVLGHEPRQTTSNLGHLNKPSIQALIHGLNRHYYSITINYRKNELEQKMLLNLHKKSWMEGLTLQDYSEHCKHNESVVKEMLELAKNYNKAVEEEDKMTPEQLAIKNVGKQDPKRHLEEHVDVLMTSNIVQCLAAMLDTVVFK

[2] = biological target: T1, DUBs and other proteins in HEK293 cells (Homo sapiens, UniProt P40818); conditions: for Log2 reporter intensity values: USP8: competition with ABP 2, DMSO substract (FC), replicates A-B; for Log2 reporter intensity values: USP8, DMSO subtracted
T1 sequence (P40818 1-1118): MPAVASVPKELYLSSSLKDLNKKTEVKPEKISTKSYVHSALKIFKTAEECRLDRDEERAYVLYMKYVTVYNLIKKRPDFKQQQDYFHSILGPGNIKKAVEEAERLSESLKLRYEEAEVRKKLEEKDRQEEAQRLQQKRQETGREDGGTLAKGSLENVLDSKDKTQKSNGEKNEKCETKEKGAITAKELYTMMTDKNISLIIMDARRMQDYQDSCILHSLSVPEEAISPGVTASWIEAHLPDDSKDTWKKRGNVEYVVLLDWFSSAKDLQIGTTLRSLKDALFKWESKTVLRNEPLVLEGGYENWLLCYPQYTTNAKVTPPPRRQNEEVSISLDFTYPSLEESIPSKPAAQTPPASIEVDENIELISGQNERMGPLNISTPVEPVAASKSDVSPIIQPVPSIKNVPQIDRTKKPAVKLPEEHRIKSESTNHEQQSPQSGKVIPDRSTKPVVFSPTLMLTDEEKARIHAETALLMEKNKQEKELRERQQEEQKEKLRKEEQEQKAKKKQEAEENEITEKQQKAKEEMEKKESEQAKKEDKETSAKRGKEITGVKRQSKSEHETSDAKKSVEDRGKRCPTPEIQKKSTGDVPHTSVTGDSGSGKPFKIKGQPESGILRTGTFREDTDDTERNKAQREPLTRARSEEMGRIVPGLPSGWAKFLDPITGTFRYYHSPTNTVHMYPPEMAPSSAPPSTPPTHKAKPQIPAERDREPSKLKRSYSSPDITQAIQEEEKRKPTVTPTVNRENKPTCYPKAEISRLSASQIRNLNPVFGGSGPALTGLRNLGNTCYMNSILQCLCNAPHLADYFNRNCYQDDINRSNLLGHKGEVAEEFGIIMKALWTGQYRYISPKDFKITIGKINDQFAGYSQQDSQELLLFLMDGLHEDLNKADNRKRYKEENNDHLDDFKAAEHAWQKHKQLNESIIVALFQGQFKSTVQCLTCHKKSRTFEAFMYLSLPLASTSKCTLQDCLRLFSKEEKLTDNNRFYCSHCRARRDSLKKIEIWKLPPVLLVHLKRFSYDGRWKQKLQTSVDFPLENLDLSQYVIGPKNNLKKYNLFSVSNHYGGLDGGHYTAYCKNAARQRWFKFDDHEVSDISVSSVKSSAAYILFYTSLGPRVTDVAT

[3] = biological target: DUBs and other proteins in HEK293 cells (Homo sapiens, UniProt Q6P2Q9); conditions: replicates A-C; for Log2 reporter intensity values: PRPF8: competition with ABP 2, DMSO substract (FC); for Log2 reporter intensity values: PRPF8, DMSO subtracted
[4] = biological target: DUBs and other proteins in HEK293 cells (Homo sapiens, UniProt Q92905); conditions: for Log2 reporter intensity values, COPS5: TMT replicates; for Log2 reporter intensity values: COPS5: competition with ABP 2, DMSO substract (FC); for Log2 reporter intensity values: COPS5 / Log2 reporter intensity values: replicates A-C; for Log2 t-test Difference / Log2 reporter intensity values: COPS5
DUBs and other proteins in HEK293 cells (Homo sapiens, UniProt Q92905), sequence (Q92905 whole entry): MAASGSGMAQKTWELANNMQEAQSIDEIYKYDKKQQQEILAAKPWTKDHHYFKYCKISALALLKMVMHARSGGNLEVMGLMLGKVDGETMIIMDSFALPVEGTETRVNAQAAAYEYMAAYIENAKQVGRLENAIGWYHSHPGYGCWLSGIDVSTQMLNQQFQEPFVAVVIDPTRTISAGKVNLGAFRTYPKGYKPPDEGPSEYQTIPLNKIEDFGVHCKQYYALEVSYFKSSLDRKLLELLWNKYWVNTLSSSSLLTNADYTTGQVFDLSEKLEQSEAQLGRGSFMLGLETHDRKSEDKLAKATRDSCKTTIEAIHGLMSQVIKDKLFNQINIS

[5] = biological target: T2, DUBs and other proteins in HEK293 cells (Homo sapiens, UniProt Q9Y4E8); conditions: replicates A-C; for Log2 reporter intensity values: USP15: competition with ABP 2, DMSO substract (FC); for Log2 reporter intensity values: USP15, DMSO subtracted
T2 sequence (Q9Y4E8 1-981): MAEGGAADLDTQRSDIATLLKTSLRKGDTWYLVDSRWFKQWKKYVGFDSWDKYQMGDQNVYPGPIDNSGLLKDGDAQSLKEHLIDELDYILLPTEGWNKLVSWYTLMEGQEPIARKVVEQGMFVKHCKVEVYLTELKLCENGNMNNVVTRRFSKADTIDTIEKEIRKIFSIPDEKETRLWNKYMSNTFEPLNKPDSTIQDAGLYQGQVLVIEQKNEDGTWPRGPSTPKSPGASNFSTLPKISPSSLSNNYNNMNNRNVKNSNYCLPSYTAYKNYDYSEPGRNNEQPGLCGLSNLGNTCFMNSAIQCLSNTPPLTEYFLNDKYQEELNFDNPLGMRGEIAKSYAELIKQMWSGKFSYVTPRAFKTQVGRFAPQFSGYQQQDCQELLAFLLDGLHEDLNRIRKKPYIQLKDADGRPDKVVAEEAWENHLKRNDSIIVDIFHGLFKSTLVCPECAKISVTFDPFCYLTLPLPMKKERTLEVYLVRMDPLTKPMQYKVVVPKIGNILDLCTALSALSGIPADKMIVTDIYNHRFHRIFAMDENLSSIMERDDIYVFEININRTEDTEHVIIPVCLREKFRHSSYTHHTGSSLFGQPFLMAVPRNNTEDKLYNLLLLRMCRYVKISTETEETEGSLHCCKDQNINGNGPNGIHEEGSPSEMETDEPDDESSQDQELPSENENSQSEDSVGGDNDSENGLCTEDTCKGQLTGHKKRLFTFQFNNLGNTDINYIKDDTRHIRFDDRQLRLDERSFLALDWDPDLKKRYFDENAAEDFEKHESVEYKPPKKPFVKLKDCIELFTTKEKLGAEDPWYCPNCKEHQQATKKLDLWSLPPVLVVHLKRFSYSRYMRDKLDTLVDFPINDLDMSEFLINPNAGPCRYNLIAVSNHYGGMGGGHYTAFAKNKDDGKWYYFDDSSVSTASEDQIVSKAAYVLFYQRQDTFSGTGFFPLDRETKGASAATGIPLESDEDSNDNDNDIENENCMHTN

Log2 reporter intensity values: PSMD14 ([1]; 1 at 1 μM): 1.038 and 0.9518 and 1.018 | Log2 reporter intensity values: PSMD14 ([1]; 1 at 4 μM): 1.04 and 0.9939 and 0.9281 | Log2 reporter intensity values ([1]; 1_1 μM): 0.0358 and -0.05091 and 0.01579 | Log2 reporter intensity values ([1]; 1_4 μM): 0.03701 and -0.008736 and -0.0746 | Log2 reporter intensity values ([1]; 1 at 1 μM): 0.05445 and -0.07134 and 0.02638 | Log2 reporter intensity values ([1]; 1 at 4 μM): 0.05612 and -0.008793 and -0.1077 | Log2 reporter intensity values: USP8 ([2]; 1 at 1 μM): 0.9851 and 0.9804 | Log2 reporter intensity values: USP8 ([2]; 1 at 4 μM): 1.1 and 1.102 | Log2 reporter intensity values ([2]; 1_1 μM, replicates A-B (C NaN)): -0.01738 and -0.02201 | Log2 reporter intensity values ([2]; 1_4 μM, replicates A-B (C NaN)): 0.09749 and 0.0991 | Log2 reporter intensity values ([2]; 1 at 1 μM, replicates A-C): -0.0217 and -0.0285 | Log2 reporter intensity values ([2]; 1 at 4 μM, replicates A-C): 0.1374 and 0.1395 | Log2 reporter intensity values: PRPF8 ([3]; 1 at 1 μM): 0.961 and 0.941 and 0.9412 | Log2 reporter intensity values: PRPF8 ([3]; 1 at 4 μM): 0.9254 and 0.9448 and 0.8776 | Log2 reporter intensity values ([3]; 1_1 μM): -0.03926 and -0.05927 and -0.05901 | Log2 reporter intensity values ([3]; 1_4 μM): -0.07482 and -0.05547 and -0.1226 | Log2 reporter intensity values ([3]; 1 at 1 μM): -0.05742 and -0.08778 and -0.08738 | Log2 reporter intensity values ([3]; 1 at 4 μM): -0.1118 and -0.08196 and -0.1883 | Log2 reporter intensity values, COPS5 ([4]; 1 μM 1 (60 min) + 20 nM ABP 2 (10 min), All values): -0.01371 and -0.03292 and 0.07504 | Log2 reporter intensity values, COPS5 ([4]; 1 μM 1 (60 min) + 20 nM ABP 2 (10 min), DMSO subtracted): 0.04441 and 0.02519 and 0.1332 | Log2 reporter intensity values, COPS5 ([4]; 4 μM 1 (60 min) + 20 nM ABP 2 (10 min), All values): 0.02465 and -0.01344 and 0.1212 | Log2 reporter intensity values, COPS5 ([4]; 4 μM 1 (60 min) + 20 nM ABP 2 (10 min), DMSO subtracted): 0.08277 and 0.04467 and 0.1793 | Log2 reporter intensity values: COPS5 ([4]; 1 at 1 μM): 1.031 and 1.018 and 1.097 | Log2 reporter intensity values: COPS5 ([4]; 1 at 4 μM): 1.059 and 1.031 and 1.132 | Log2 t-test Difference ([4]; 1 - 1 μM): -0.09474 | Log2 t-test Difference ([4]; 1 - 4 μM): -0.06006 | Log2 reporter intensity values ([4]; 1_1 μM, DMSO subtracted): 0.03118 and 0.01753 and 0.09661 | Log2 reporter intensity values ([4]; 1_4 μM, DMSO subtracted): 0.05896 and 0.03137 and 0.1323 | Log2 reporter intensity values ([4]; 1 at 1 μM, DMSO subtracted): 0.04441 and 0.02519 and 0.1332 | Log2 reporter intensity values ([4]; 1 at 4 μM, DMSO subtracted): 0.08277 and 0.04467 and 0.1793 | Log2 reporter intensity values: USP15 ([5]; 1 at 1 μM): 0.9886 and 1.029 and 1.017 | Log2 reporter intensity values: USP15 ([5]; 1 at 4 μM): 1.093 and 1.191 and 1.05 | Log2 reporter intensity values ([5]; 1_1 μM): -0.01164 and 0.02918 and 0.01631 | Log2 reporter intensity values ([5]; 1_4 μM): 0.09302 and 0.1906 and 0.04957 | Log2 reporter intensity values ([5]; 1 at 1 μM): -0.0165 and 0.04186 and 0.02371 | Log2 reporter intensity values ([5]; 1 at 4 μM): 0.1287 and 0.252 and 0.07016
SMILES: N#CN1CCC[C@H]1C(=O)N1CCc2c(-c3c[nH]c4ncccc34)cccc21 [Compound 1]
